Experiment: Stability of solid-state forms
Assay type: physicochemical
Conditions: B form (hydrate from acetone/water) compared with amorphous form and A and C modifications
Excerpt: Cyclosporins according to the invention may exist in the solid state in amorphous form or in one or more crystalline forms. For example, the compound of Example 2 below exists in amorphous form or in at least three crystalline forms, distinguishable by X-ray diffraction and designated the A, B and C modifications.

stability of crystal form: most stable
SMILES: C/C=C/C[C@@H](C)[C@@H](O)[C@H]1C(=O)N[C@@H](CC)C(=O)N(C)CC(=O)N(C)[C@@H](CC(C)C)C(=O)N[C@@H](C(C)C)C(=O)N(C)[C@@H](CC(C)C)C(=O)N[C@@H](C)C(=O)N[C@H](COCCO)C(=O)N(C)[C@@H](CC(C)C)C(=O)N(C)[C@@H](CC(C)C)C(=O)N(C)[C@@H](C(C)C)C(=O)N1C [Example 2, [O-(2-hydroxyethyl)(D)Ser]^8 -Ciclosporin]

Reference: patent US5284826A, “0-hydroxyethyl and acyloxyethyl derivatives of [ser]^8 cyclosporins” (Sandoz Ltd., priority 1989, dated 1994)
